Assays:
PPE62 = molecular target: T1, PPE62 (Mycobacterium tuberculosis, UniProt P9WHX7); experiment: SPR (Biacore T200, NTA chip, […] binding model); details: read-out: Heme dissociation constant
T1 construct: PPE62His6 (Rv3533c)
T1 sequence (P9WHX7 1-582): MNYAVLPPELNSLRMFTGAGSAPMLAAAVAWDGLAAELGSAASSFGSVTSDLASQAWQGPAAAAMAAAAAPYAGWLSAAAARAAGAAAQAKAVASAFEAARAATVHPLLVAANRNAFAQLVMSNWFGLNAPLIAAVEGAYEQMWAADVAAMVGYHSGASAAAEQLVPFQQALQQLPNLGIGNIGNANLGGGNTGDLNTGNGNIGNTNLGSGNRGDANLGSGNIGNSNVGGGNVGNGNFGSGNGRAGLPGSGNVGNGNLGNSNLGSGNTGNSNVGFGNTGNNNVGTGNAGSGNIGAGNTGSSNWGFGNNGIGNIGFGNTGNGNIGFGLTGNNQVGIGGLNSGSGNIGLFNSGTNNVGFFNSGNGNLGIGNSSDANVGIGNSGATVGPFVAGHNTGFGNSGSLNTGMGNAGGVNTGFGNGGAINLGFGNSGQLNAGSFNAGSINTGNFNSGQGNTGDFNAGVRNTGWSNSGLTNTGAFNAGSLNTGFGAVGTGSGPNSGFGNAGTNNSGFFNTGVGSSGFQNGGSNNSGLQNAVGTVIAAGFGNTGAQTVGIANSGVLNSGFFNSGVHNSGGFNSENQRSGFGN

PPE36 = PPE36 (Mycobacterium tuberculosis, UniProt P9WI01); experiment: biochemical
PPE36, sequence (P9WI01 whole entry): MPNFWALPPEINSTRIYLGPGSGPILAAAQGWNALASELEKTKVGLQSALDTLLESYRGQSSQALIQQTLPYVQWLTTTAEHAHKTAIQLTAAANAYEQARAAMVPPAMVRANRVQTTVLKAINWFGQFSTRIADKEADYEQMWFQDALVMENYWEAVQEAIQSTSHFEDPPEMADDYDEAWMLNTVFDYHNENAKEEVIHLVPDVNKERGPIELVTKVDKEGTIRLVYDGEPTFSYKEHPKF
PPE36, sequence (L7N6B5 1-98 partner): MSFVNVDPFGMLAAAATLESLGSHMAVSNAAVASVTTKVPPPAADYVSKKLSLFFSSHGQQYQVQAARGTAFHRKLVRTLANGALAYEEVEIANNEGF

C=CC1=C(C)C2=Cc3c(C=C)c(C)c4[n]3[Fe]([Cl])[n]3c(c(C)c(CCC(=O)O)c3=CC3=NC(=C4)C(C)=C3CCC(=O)O)=CC1=N2 [hemin]
Kd (PPE62): 400 µM
Kd (PPE36): 4 mM

From publication PMC5263243, “PPE Surface Proteins Are Required for Heme Utilization by Mycobacterium tuberculosis” (mBio, 2017)
